Non-standard residues stand in square brackets, D forms with d. No end group written: not given here. pGlu = O=C1CC[C@@H](C(=O)O)N1
Assays:
[1] = Sweetness grading of sweetener solutions on a scale from 0 to 15 over 7 days; conditions: for Sweetness score Day 1 / Sweetness score Day 4 / Sweetness score Day 5 / Sweetness score Day 6 / Sweetness score Day 7: scale of 0-15
Experimental: Formulations comprising brazzein and rebaudiosides were developed and their relative sweetness was assessed. Sweetness was graded on a scale from 0 (no sweetness) to 15 (maximal sweetness) and assessed for the different formulations over a period of 7 days.

[2] = cited from earlier work
[3] = Sensory grading (0 to 9) of flavor and sweetness of chocolate formulations with versus without brazzein; conditions: chocolate with Reb D, Reb E, Reb I, Reb M, with vs without brazzein; FIG. 2B
Experimental: Formulations comprising brazzein and chocolate were developed, and their relative flavor and sweetness were assessed. Sweetness and flavor were graded across different factors on a scale from 0 (minimum) to 9 (maximal) and assessed for the different formulations. Different factors tested include sweet taste, bitter taste, chocolate flavor, dairy flavor, sweet aromatics, and green/vegetative. The formulations tested comprise brazzein, Reb D, Reb E, Reb I, Reb M and chocolate compared to a control (chocolate comprising Reb D, Reb E, Reb I, and Reb M).
The sweetness is enhanced by having the early onset and slow fade more like sugar than chocolate that is only sweetened with Reb D, Reb E, Reb I, and Reb M. Therefore, including brazzein in food compositions, such as chocolate, enhance the flavor and sweetness of the composition.

[4] = cited from earlier work; remark: listed apart in the source

Compound | Sweetness score Day 1 [1] | Sweetness score Day 4 [1] | Sweetness score Day 5 [1] | Sweetness score Day 6 [1] | Sweetness score Day 7 [1] | other results
C=C1C[C@@]23CC[C@H]4[C@@](C)(CCC[C@@]4(C)C(=O)O[C@@H]4O[C@H](CO)[C@@H](O)[C@H](O[C@@H]5O[C@H](CO)[C@@H](O)[C@H](O)[C@H]5O)[C@H]4O[C@@H]4O[C@H](CO)[C@@H](O)[C@H](O)[C@H]4O)[C@@H]2CC[C@]1(O[C@@H]1O[C@H](CO)[C@@H](O)[C@H](O[C@@H]2O[C@H](CO)[C@@H](O)[C@H](O)[C@H]2O)[C@H]1O[C@@H]1O[C@H](CO)[C@@H](O)[C@H](O)[C@H]1O)C3 [Reb M at SE of 5% sucrose, Rebaudioside M] | 5 | 5 | 5 | 5 | 5 | –
OC[C@H]1O[C@@](CO)(O[C@H]2O[C@H](CO)[C@@H](O)[C@H](O)[C@H]2O)[C@@H](O)[C@@H]1O [Sucrose (5%), Sucrose] | 5 | 5 | 5 | 5 | 5 | –
PyrE-bra: major form brazzein, pyroglutamic acid at N-terminus, 54 amino acid residues ([pGlu]DKCKKVYENYPVSKCQLANQCNYDCKLDKHARSGECFYDEKRNLQCICDYCEY; cysteine pairing not given here; UniProt P56552 1-54, looked up) | – | – | – | – | – | Times sweeter than 10% sucrose solution ([2]; vs 10% sucrose solution): 500 times
brazzein: natural peptide sweetener first isolated from the fruit of Pentadiplandra brazzeana Baillon (SEQ ID NO: 12) (QDKCKKVYENYPVSKCQLANQCNYDCKLDKHARSGECFYDEKRNLQCICDYCEY; Pentadiplandra brazzeana Baillon) | – | – | – | – | – | Effect on perceived sweetness profile of the solution ([1]; 25 ppm brazzein added to a 5% sucrose solution): slightly enhanced; Sweetness over the 7-day period ([1]; 25 ppm brazzein in 5% sucrose solution): remained stable; Effect on sweetness of a Reb M solution ([1]; brazzein added to Reb M solution with SE of 5% sucrose, compared to sucrose plus brazzein): synergistically enhanced; Astringency [3]: decreased; Bitter taste at 120 seconds [3]: decreased; Times sweeter than sucrose on a weight basis ([2]; weight basis): 500-2000 times; Sweet taste after incubation at 80° C. for 4.5 hours ([4]; 80° C., 4.5 hours, pH range of 2.5-8.0): sweet taste remains; Sweet taste after incubation at 98° C. for 2 hours ([4]; 98° C., 2 hours): sweet taste remains
